Reference: article PMC3996151, “Safety and pharmacological characterization of the molecular tweezer CLR01 – a broad-spectrum inhibitor of amyloid proteins’ toxicity” (BMC Pharmacology & Toxicology, 2014)
Marks after values point to notes of the source that are not given here.

How the values were obtained:
C57BL/6J mice = experiment: Acute toxicity: single IP injection, behaviour, histopathology and serum chemistry after 24 h; type: in vivo, mouse; details: for Alanine aminotransferase / Albumin / Alkaline phosphatase / Aspartate aminotransferase / Blood urea nitrogen / Cholesterol / Creatinine / Glucose / Lactate dehydrogenase / Total bilirubin / Total protein: serum, acute, mean
Experimental: For acute-toxicity studies, 2-m old C57BL/6J mice were administered saline-vehicle, 10 mg/kg, or 100 mg/kg CLR01 by a single intraperitoneal (IP) injection. The mice were sacrificed 24-h after the injection. For chronic toxicity studies, 2-m old C57BL/6J mice were administered saline-vehicle, 3 mg/kg, or 10 mg/kg CLR01 by daily IP injection for 30 days. Acute-study mice were visually monitored for 1 h after injection and then every 50 min for 10 min over the first 6 h of the experiment for changes in activity and behavior. The mice also were monitored every 110 min for 10 min during the last 6 h of the experiment until they were sacrificed. Chronic-study mice were monitored for 1 h after injection and then 3 times a day for 10 min each, every day of the first week. During that week there were no appreciable changes in the behavior, appearance, or weight of the mice. Therefore, monitoring was reduced to twice a day during the remainder of the experiment. On all occasions, the mice were monitored for any signs of severe toxicity, including bruising or bleeding, pale mucous membranes or extremities, diarrhea, dehydration, neurological signs, such as difficulty ambulating or paralysis, tachypnea or dyspnea, or abdominal distension.
Following the treatment, mice were anesthetized with pentobarbital and blood was collected by cardiac puncture and placed in tubes containing a clot activator for serum separation (Capiject T-MG tubes, Terumo Medical Products, Somerset, NJ). Then, the lungs were filled through the trachea with 4% paraformaldehyde to prevent collapse, and tissues (brain, heart-lung, liver, kidney, and spleen) were collected and fixed for 72 h in 4% paraformaldehyde at a ratio of ~1:10 tissue:fixative (v/v). Tissues then were transferred into a 70%-ethanol solution and transferred to the UCLA Mouse Pathology Core for paraffin embedding, sectioning, and tissue histopathology analysis. Serum was analyzed by the UCLA Division of Laboratory Animal Medicine (DLAM) Animal Serology & Molecular Diagnostic Laboratory for an 11-panel serum chemical analysis using the ACE Alera Clinical Chemistry system (Alfa Wassermann Diagnostic Technologies, West Caldwell, NJ). The panel included: alanine aminotransferase, aspartate aminotransferase, albumin, alkaline phosphatase, creatinine, total bilirubin, lactate dehydrogenase, blood urea nitrogen, cholesterol, total protein, and glucose.
If CLR01 indeed operates by a process-specific mechanism and remodels the abnormal aggregation of amyloidogenic proteins at substantially lower concentrations than concentrations that would perturb normal physiological processes, one would expect the compound to have a high therapeutic index. To calculate the therapeutic index, a lethal dose must be reached. […] The next rational step was to test the safety margin of CLR01 in vivo. Based on the in vitro and cell culture data, we expected that 100 mg/kg would be lethal to mice and therefore used it as the highest dose in our safety-evaluation experiments. We assessed the safety of CLR01 in 2-m old, male, WT mice either 24 h following a single IP injection of 10 or 100 mg/kg (acute administration) or after daily IP injection of 3 or 10 mg/kg for 30 days (chronic administration). Following euthanasia, serum was collected for chemical analysis and tissues were harvested for histopathology evaluation.

[1] = In vitro dephosphorylation by brain homogenate (inorganic phosphate release); type: in vitro ADME, mouse; details: 50 nmol CLR01, 1.5 mg mouse-brain homogenate, 60 min at 60°C
Experimental: Potential dephosphorylation of CLR01 was analyzed by incubating 100 nmol CLR01 with 0.08 units of alkaline phosphatase (ALP; calf intestinal alkaline phosphatase, Promega, Madison, Wisconsin) for 60 min at 60°C. One enzymatic unit is defined as the amount of enzyme required for catalyzing the hydrolysis of 1 μmol of p-nitrophenylphosphate per minute. p-Nitrophenylphosphate disodium salt at 5–50 nmol (Fisher, Waltham, Massachusetts) was used for generation of a standard curve. The amount of inorganic phosphate generated was measured spectrophotometrically using an EnzChek Phosphate Assay kit (Life Technologies, Carlsbad, California) according to the manufacturer’s instructions on a DU-640 spectrophotometer (Beckman Coulter, Brea, California) at λ = 360 nm. Baseline values were subtracted from readings and compared to the standard curve resulting from serial ALP reactions to calculate the amount of inorganic phosphate. Similarly, potential dephosphorylation of CLR01 by brain homogenates was measured. For these experiments, one brain hemisphere was homogenized by sonication in the presence of cOmplete protease-inhibitor cocktail (Roche, Penzberg, Germany). Protein concentration was measured using a BCA Protein Assay Kit (Pierce, Rockford, Illinois). […]

[2] = design: method as in PMID 23183235; details: 3H-CLR01 IV, 12-m old WT and 3×Tg AD mice; cited from earlier work
[3] = design: method as in PMID 23183235; details: human liver microsomes; cited from earlier work
3×Tg mouse model of AD = system: 3×Tg mouse model of AD; design: method as in PMID 23183235; details: cited from earlier work
[4] = 2-m old WT mice, 24 h after single IP dose 10 mg/kg, N = 8
[5] = 2-m old WT mice, 24 h after single IP dose 100 mg/kg, N = 8
[6] = 2-m old WT mice, 24 h after single IP dose 100 mg/kg, N = 8, p < 0.001 vs control
[7] = 2-m old WT mice, 24 h after single IP dose 100 mg/kg, N = 8, p < 0.01 vs control

Compound: O=P(O)(O)Oc1c2c(c(OP(=O)(O)O)c3c1C1CC3c3cc4c(cc31)C1CC4c3ccccc31)C1CC2c2cc3c(cc21)C1CC3c2ccccc21 [CLR01]
- Single non-lethal dose relative to the efficacious dose (C57BL/6J mice; 100 mg/kg single dose): 2,500 fold
- Alanine aminotransferase (C57BL/6J mice; [4]): 36.1 U/L
- Albumin (C57BL/6J mice; [4]): 2.3 g/dL
- Alkaline phosphatase (C57BL/6J mice; [4]): 126.1 U/L
- Aspartate aminotransferase (C57BL/6J mice; [4]): 89.5 U/L
- Blood urea nitrogen (C57BL/6J mice; [4]): 19.8 mg/dL
- Cholesterol (C57BL/6J mice; [4]): 91.5 mg/dL
- Creatinine (C57BL/6J mice; [4]): 0.2 mg/dL
- Glucose (C57BL/6J mice; [4]): 297.8 mg/dL
- Lactate dehydrogenase (C57BL/6J mice; [4]): 325.2 U/L
- Total bilirubin (C57BL/6J mice; [4]): 0.2 mg/dL
- Total protein (C57BL/6J mice; [4]): 3.7 g/dL
- Albumin (C57BL/6J mice; [5]): 1.9 g/dL
- Alkaline phosphatase (C57BL/6J mice; [5]): 101.5 U/L
- Blood urea nitrogen (C57BL/6J mice; [5]): 22.0 mg/dL
- Creatinine (C57BL/6J mice; [5]): 0.4 mg/dL
- Total bilirubin (C57BL/6J mice; [5]): 0.3 mg/dL
- Total protein (C57BL/6J mice; [5]): 3.6 g/dL
- Alanine aminotransferase (C57BL/6J mice; [6]): 1282.9*** U/L
- Glucose (C57BL/6J mice; [6]): 104.3*** mg/dL
- Lactate dehydrogenase (C57BL/6J mice; [6]): 2439.8*** U/L
- Aspartate aminotransferase (C57BL/6J mice; [7]): 565.3** U/L
- Cholesterol (C57BL/6J mice; [7]): 20.8** mg/dL
- Behavior (levels and type of activity and grooming) (C57BL/6J mice; single IP 10 mg/kg): behaved indistinguishably from control mice
- Incidence of liver degeneration and necrosis (C57BL/6J mice; single IP 10 mg/kg, 24 h): one of eight
- Duration of decreased activity and droopy eyelids in some mice (C57BL/6J mice; single IP 100 mg/kg): up to 2 h
- Duration of signs of distress following the injection (C57BL/6J mice; single IP 100 mg/kg): ~ 30 min
- Behavior after injection (C57BL/6J mice; single IP 100 mg/kg, 2-m old WT mice): obvious signs of distress
- Survival (C57BL/6J mice; single IP 100 mg/kg, 24 h): all the mice in the high-dose group survived
- Liver histopathology (C57BL/6J mice; single IP 100 mg/kg, 24 h, all mice, centrilobular and midlobular regions): liver degeneration and necrosis
- Histopathology of heart, lung, spleen and brain (C57BL/6J mice; single IP 10 or 100 mg/kg, 24 h): indistinguishable from those of control mice
- Lethal dose (C57BL/6J mice; single IP injection, mice): > 100 mg/kg
- Inorganic phosphate released on incubation with brain homogenate [1]: no release of inorganic phosphate was detected
- Radioactivity levels in the brain, % of blood levels [2]: ~ 2%
- Stability [3]: 100%
- Effect on AD-like brain pathology (3×Tg mouse model of AD; SC, 40 μg/kg/day): significant decrease in amyloid plaque burden and hyperphosphorylated tau
- Effect on APP processing (3×Tg mouse model of AD; treated AD mice): did not affect processing of amyloid β-protein precursor (APP)
